From PMC2000878, “Module structure of interphotoreceptor retinoid-binding protein (IRBP) may provide bases for its complex role in the visual cycle – structure/function study of Xenopus IRBP” (BMC Biochemistry, 2007)
Where two headings read alike, the source gives them in different places.

Biological target: Xenopus IRBP Module 1 (Xenopus laevis, UniProt Q7SZI7)
Experiment: Fluorometric titration (enhancement, quenching)
Type: binding
Parameters: cDNAs corresponding to the full-length IRBP, module 1, and module 2 were expressed in pThioHis; modules 3 and 4 were expressed in pTrxFus; made in house; host or cells: E. coli Top10 (pThioHis)
Text: Enhancement of retinol fluorescence and quenching of the intrinsic protein fluorescence were used to monitor binding of all-trans retinol to the recombinant IRBPs. We previously derived an equation that is generally useful for describing such quantum yield changes that are consequent upon ligand binding. This equation has been previously applied to the analysis of binding by monitoring the enhancement of retinol fluorescence. In this case, where excitation is at 330 nm and emission is monitored at 480, the fluorescence enhancement (Fenh) depends on the total retinol concentration (Rt), the dissociation constant (Kd ^all-trans), the number of retinol-binding sites per protein molecule (N) and the total protein concentration (Pt).
Assuming that there is a single type of noninteracting site on the protein, (Fenh) is expected to be linearly related to the concentration of bound retinol molecules. Fenh is given by the relation
Fenh=C1+C2[Rtall−trans−(Rtall−trans+NPt+Kdall−trans)^2−4NPtRtall−trans] MathType@MTEF@5@5@+=feaafiart1ev1aaatCvAUfKttLearuWrP9MDH5MBPbIqV92AaeXatLxBI9gBaebbnrfifHhDYfgasaacH8akY=wiFfYdH8Gipec8Eeeu0xXdbba9frFj0=OqFfea0dXdd9vqai=hGuQ8kuc9pgc9s8qqaq=dirpe0xb9q8qiLsFr0=vr0=vr0dc8meaabaqaciaacaGaaeqabaqabeGadaaakeaacqWGgbGrdaWgaaWcbaGaemyzauMaemOBa4MaemiAaGgabeaakiabg2da9iabdoeadnaaBaaaleaacqaIXaqmaeqaaOGaey4kaSIaem4qam0aaSbaaSqaaiabikdaYaqabaGcdaWadaqaaiabdkfasnaaDaaaleaacqWG0baDaeaacqWGHbqycqWGSbaBcqWGSbaBcqGHsislcqWG0baDcqWGYbGCcqWGHbqycqWGUbGBcqWGZbWCaaGccqGHsisldaGcaaqaamaabmaabaGaemOuai1aa0baaSqaaiabdsha0bqaaiabdggaHjabdYgaSjabdYgaSjabgkHiTiabdsha0jabdkhaYjabdggaHjabd6gaUjabdohaZbaakiabgUcaRiabd6eaojabdcfaqnaaBaaaleaacqWG0baDaeqaaOGaey4kaSIaem4saS0aa0baaSqaaiabdsgaKbqaaiabdggaHjabdYgaSjabdYgaSjabgkHiTiabdsha0jabdkhaYjabdggaHjabd6gaUjabdohaZbaaaOGaayjkaiaawMcaamaaCaaaleqabaGaeGOmaidaaOGaeyOeI0IaeGinaqJaemOta4Kaemiuaa1aaSbaaSqaaiabdsha0bqabaGccqWGsbGudaqhaaWcbaGaemiDaqhabaGaemyyaeMaemiBaWMaemiBaWMaeyOeI0IaemiDaqNaemOCaiNaemyyaeMaemOBa4Maem4CamhaaaqabaaakiaawUfacaGLDbaaaaa@8490@
The equation was fit to the data by nonlinear least-squares analysis. To follow the quenching of the protein's intrinsic fluorescence the excitation and emission wavelengths were set to 280 nm and 340 nm, respectively, while the protein was titrated with all-trans retinol. For the quenching studies the inner filter effect was accounted for by graphical correction as previously described. Fluorescence measurements were made using an SLM 8000TM C photon counting spectrofluorometer corrected for wavelength dependence of source energy and detector response.

Xenopus IRBP Module 1, sequence (Q7SZI7 23-315): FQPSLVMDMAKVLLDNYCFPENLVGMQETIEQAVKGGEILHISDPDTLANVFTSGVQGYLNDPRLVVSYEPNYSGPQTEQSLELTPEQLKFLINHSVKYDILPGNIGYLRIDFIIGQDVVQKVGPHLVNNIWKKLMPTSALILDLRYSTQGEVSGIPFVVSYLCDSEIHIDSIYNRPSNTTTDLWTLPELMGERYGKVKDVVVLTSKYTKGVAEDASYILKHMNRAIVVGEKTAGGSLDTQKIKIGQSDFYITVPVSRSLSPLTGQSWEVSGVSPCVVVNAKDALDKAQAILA

Binding sites (N), Enhancement (all-trans retinol fluorescence enhancement, ex 330 nm, em 480 nm): 0.83 ± 0.15
Kd (all-trans retinol fluorescence enhancement, ex 330 nm, em 480 nm, read-out: Kd, Enhancement): 440 ± 130 nM
Kd (quenching by all-trans retinol, ex 280 nm, em 340 nm, read-out: Kd, Quenching): 350 ± 80 nM
Compound: CC1=C(/C=C/C(C)=C/C=C/C(C)=C/CO)C(C)(C)CCC1 [all-trans retinol]
